In patent US10799512B2, “Estrogen combination for treatment of multiple sclerosis” (The Regents of the University of California, priority 2014, dated 2020):

Experiments:
Assay type in all cases: in vivo, human
[1] = Estriol blood/serum levels in treated patients
Procedure: (§1) Patients also underwent mammograms before and after the study.
Baseline characteristics were similar in both patient groups.
FIG. 6 depicts estriol blood levels induced by treatment with estriol 8 mg per day every day plus norethindrone 0.7 mg a day for 14 days every 3 months.

[2] = tested on: female patients with active relapsing multiple sclerosis; assay: Safety and tolerability (gynecological and breast exams, adverse events); conditions: patients received Copaxone with estriol
Procedure: 158 patients were randomized to Copaxone® (glatiramer acetate) injections (20 mg/day) and oral estriol (8 mg/day) or to Copaxone® injections and placebo for a 24-month treatment duration. Gynecologists examined the patients before, during, and after the study. Each patient was examined at three- to six-month intervals during the trial. Patients also underwent mammograms before and after the study. In addition, at baseline, three months, six months, 12 months, 18 months, and 24 months, the investigators measured participants' estriol levels, and assessed for MS relapses and MS-related disabilities.
Baseline characteristics were similar in both patient groups. Participants' mean age at entry was approximately 38, and their mean EDSS score at entry was 2.2. […] To ensure breast and uterus safety, every three months the patients took norethindrone 0.7 mg once a day for 14 days.

[3] = tested on: female patients with active relapsing multiple sclerosis; assay: Timed 25-foot walk test; conditions: between-group difference p=0.02; higher time = worse
From the text: as §1
Another clinical disability measure with treatment effects was the timed 25-foot walk test. This test measures how many seconds it takes to walk 25 feet, with higher scores indicating worse disability. […] This beneficial effect of estriol treatment on 25-foot walking times is consistent with the beneficial effect of estriol treatment on EDSS scores since the latter is weighted toward being an indicator of ambulation.

[4] = tested on: female patients with active relapsing multiple sclerosis; assay: Brain MRI, gadolinium enhancing lesions; conditions: at month 12; p=0.14
From the text: as §1
Brain MRI is used extensively in MS as a surrogate marker for clinical effects. Brain white matter gadolinium enhancing lesions are a biomarker for relapses.

[5] = tested on: female patients with active relapsing multiple sclerosis; assay: Expanded Disability Status Scale (EDSS); conditions: over 24 months
From the text: as §1
The Expanded Disability Status Scale (EDSS) is a standard composite disability score used in MS trials. Higher scores indicate worse disability. This composite covers a variety of disabilities (including ambulation, vision, cognition, coordination, etc.), but the scoring is not linear and the composite score is understood to be principally an indicator of the level of disability in ambulation.

| Compound | estriol blood levels induced ([1]; estriol 8 mg per day every day plus norethindrone 0.7 mg a day for 14 days every 3 months, FIG. 6) | estriol levels in serum ([1]; estriol-treated group, oral estriol 8 mg/day) | Breast - Fibrocystic breast disease on clinical exam [2] | Uterine fibroids on ultrasound [2] | change in 25-foot walk time [3] | reduction in number of subjects with brain MRI scans positive for enhancing lesions [4] | EDSS scores, slope ([5]; FIG. 4, p=0.06 (estriol), p=0.90 (placebo)) | change in EDSS scores ([5]; decrease = improvement) |
| --- | --- | --- | --- | --- | --- | --- | --- | --- |
| C[C@]12CC[C@@H]3c4ccc(O)cc4CC[C@H]3[C@@H]1C[C@@H](O)[C@@H]2O [estriol] | about 10 ng/ml | mid-pregnancy range | 5 subjects | 8 subjects | – | – | – | – |
| glatiramer acetate [Copaxone® plus placebo] | – | – | – | – | significantly increased | 22% | −0.01 | no change |
